In the oligonucleotide strings, read from the 5' end, every base follows the letter of its sugar. An asterisk marks phosphorothioate; unmarked linkages are phosphodiester. Other units and linkages are bracketed, terminal groups are in braces. A string of capitals states the bases alone. e = 2'-O-(2-methoxyethyl) (MOE); [5mC] = 5-methylcytosine; d = 2'-deoxy (DNA)

The test system of the first data set is human Factor 7 mRNA. Description: Antisense inhibition of human Factor 7 mRNA in HepB3 cells, lipofectin, 50 nM, real-time RT-PCR. It is filed as cell-based. The conditions noted are these: Example 1; HepB3 cells, lipofectin, 50 nM, ~24 h, relative to untreated control cells. On the procedure: Antisense oligonucleotides targeted to a Factor 7 nucleic acid were tested for their effects on Factor 7 mRNA in vitro. Cultured HepB3 cells at a density of 4,000 cells per well were transfected using lipofectin reagent with 50 nM antisense oligonucleotide. After a treatment period of approximately 24 hours, RNA was isolated from the cells and Factor 7 mRNA levels were measured by real-time RT-PCR, as described herein. Factor 7 mRNA levels were adjusted according to total RNA content as measured by RIBOGREEN®. Results are presented as percent inhibition of Factor 7, relative to untreated control cells.
(§1) Antisense oligonucleotides targeted to a Factor 7 nucleic acid were designed and tested for their effects on Factor 7 mRNA in vitro. Certain antisense oligonucleotides from Table 3 were also retested for their effects on Factor 7 mRNA in vitro. Cultured HepB3 cells at a density of 4,000 cells per well were transfected using lipofectin reagent with 50 nM antisense oligonucleotide. After a treatment period of approximately 24 hours, RNA was isolated from the cells and Factor 7 mRNA levels were measured by real-time RT-PCR, as described herein. Human Factor 7 primer probe set RTS 2927 was used to measure mRNA levels. Factor 7 mRNA levels were adjusted according to total RNA content as measured by RIBOGREEN®. Results are presented as percent inhibition of Factor 7, relative to untreated control.
as §1, with “tested” for “tested for their effects on Factor 7 mRNA in vitro. Certain antisense oligonucleotides from Table 3 were also retested”
These gapmers were designed by creating gapmers shifted slightly upstream and downstream (i.e. “microwalk”) of the original gapmers from Table 7. Gapmers were also created with various motifs, e.g. 5-10-5 MOE, 3-14-3 MOE, and 2-13-5 MOE. These gapmers were tested in vitro. Cultured HepB3 cells at a density of 4,000 cells per well were transfected using lipofectin reagent with 50 nM antisense oligonucleotide. After a treatment period of approximately 24 hours, RNA was isolated from the cells and Factor 7 mRNA levels were measured by real-time RT-PCR. Factor 7 mRNA levels were adjusted according to total RNA content, as measured by RIBOGREEN®. Results are presented as percent inhibition of Factor 7, relative to untreated control cells.
A general note: In qPCR the cycle at which signal appears reflects the starting amount.
Consider “407661 (antisense eT*eT*eT*eA*e[5mC]*dA*dA*dG*dA*dG*d[5mC]*dA*dG*dG*dG*eT*eG*e[5mC]*e[5mC]*eT) [compound 407661]”, for which the “% Inhibition (human Factor 7 mRNA)” value is recorded as 47%.
On the same count and under the same terms, under “407618 (antisense eG*eT*eA*eT*eT*dT*dT*dT*d[5mC]*d[5mC]*dA*d[5mC]*dA*dT*dG*eG*eA*eT*eA*eT) [compound 407618]” stands 42%; under “407613 (antisense eT*eG*e[5mC]*eT*e[5mC]*dA*d[5mC]*dA*dG*d[5mC]*d[5mC]*dG*d[5mC]*d[5mC]*dG*eT*eT*e[5mC]*eT*e[5mC]) [compound 407613]”, 66%.

Staying with this data set, now noted: Example 6 microwalk, nucleobases 15098 to 15122 of SEQ ID NO: 1; HepB3, lipofectin, 50 nM, ~24 h.
Consider “422212 (antisense eG*eA*e[5mC]*dA*dG*d[5mC]*dA*d[5mC]*dA*d[5mC]*dA*dT*dG*dG*dA*dG*dT*e[5mC]*eA*eG) [compound 422212]”, for which the “% Inhibition (human Factor 7 mRNA)” value was determined as 30%.
Take “422286 (antisense eA*eG*d[5mC]*dA*d[5mC]*dA*d[5mC]*dA*dT*dG*dG*dA*dG*dT*d[5mC]*eA*eG*e[5mC]*eA*eT) [compound 422286]”: the “% Inhibition (human Factor 7 mRNA)” value was determined as 53%.

The same data set, now with this note: HepB3 cells, lipofectin, 50 nM antisense oligonucleotide, approximately 24 hours, primer probe set RTS 2927, relative to untreated control.
For “416567 (antisense eT*eG*eG*eT*eG*dG*d[5mC]*dA*d[5mC]*d[5mC]*dA*dG*dA*dT*dG*eT*e[5mC]*eT*eG*eA) [compound 416567]”, the “% Inhibition of human Factor 7 mRNA levels” value was 2%.
Still for that read-out and setting: under “416428 (antisense e[5mC]*eT*eG*eG*eG*dT*dT*dA*d[5mC]*dG*dA*dA*dG*dA*d[5mC]*eT*eG*e[5mC]*eA*eG) [compound 416428]” stands 11%; under “416439 (antisense eG*eT*e[5mC]*e[5mC]*eT*dT*dG*d[5mC]*dA*dG*dG*dA*dG*d[5mC]*d[5mC]*e[5mC]*e[5mC]*e[5mC]*eA*eT) [compound 416439]”, 56%; under “416465 (antisense e[5mC]*eA*e[5mC]*eT*eG*dT*d[5mC]*d[5mC]*d[5mC]*d[5mC]*d[5mC]*dT*dT*dG*d[5mC]*eA*eG*eG*eA*eG) [compound 416465]”, 51%.
For “416436 (antisense eA*e[5mC]*eT*eG*eG*dT*d[5mC]*d[5mC]*d[5mC]*d[5mC]*dA*dT*d[5mC]*dA*d[5mC]*eT*eG*eT*eA*eA) [compound 416436]”, the “% Inhibition of human Factor 7 mRNA levels” value was found to be 27%.
For “416448 (antisense eT*eT*eT*eT*eT*d[5mC]*d[5mC]*dA*d[5mC]*dA*dT*dG*dG*dA*dT*eA*eT*eT*e[5mC]*eA) [compound 416448]”, the “% Inhibition of human Factor 7 mRNA levels” value is on record as 34%.

The data set is the same for the next values; noted with them: HepB3 cells; gapmers (5-10-5, 3-14-3, 2-13-5 MOE) targeted to nucleobases 4868 to 4899 of SEQ ID NO: 1.
On to “422139 (antisense eT*eT*e[5mC]*eT*eG*d[5mC]*dA*dG*dG*dA*dG*d[5mC]*dG*dG*d[5mC]*e[5mC]*eT*eA*eA*eA) [compound 422139]”, for which the “% Inhibition of human Factor 7 mRNA levels” value is listed as 66%.
Still for that read-out and setting: under “422221 (antisense eG*e[5mC]*e[5mC]*d[5mC]*dG*dA*dG*dT*dT*d[5mC]*dT*dG*d[5mC]*dA*dG*dG*dA*eG*e[5mC]*eG) [compound 422221]” stands 59%; under “422298 (antisense eG*e[5mC]*d[5mC]*d[5mC]*dG*dA*dG*dT*dT*d[5mC]*dT*dG*d[5mC]*dA*dG*eG*eA*eG*e[5mC]*eG) [compound 422298]”, 62%.

Still in this data set, the particulars now being: HepB3 cells; gapmers targeted to nucleobases 11830 to 11869 of SEQ ID NO: 1 (Table 9).
For the substance “422240 (antisense eA*eG*dA*d[5mC]*dA*dA*dT*dG*dG*dT*d[5mC]*dA*dG*dG*dG*e[5mC]*eT*eG*eG*eT) [compound 422240]”, the “% Inhibition of human Factor 7 mRNA levels” value came out at 66%.
Same read-out and setting: under “422239 (antisense eG*eA*d[5mC]*dA*dA*dT*dG*dG*dT*d[5mC]*dA*dG*dG*dG*d[5mC]*eT*eG*eG*eT*eT) [compound 422239]” stands 67%.
Still for that read-out and setting: under “422106 (antisense e[5mC]*eT*eG*eG*e[5mC]*dT*dG*dA*dG*dG*dA*dG*dA*d[5mC]*dA*eA*eT*eG*eG*eT) [compound 422106]” stands 32%.

Values taken from patent US20120214862A1, “MODULATION OF FACTOR 7 EXPRESSION” (ISIS Pharmaceuticals, Inc., priority 2009, published 2012).
